EC50 and Emax data for 32 compounds are collected here from US20080132505A1 (Glaxo Group Limited, priority 2004, published 2008).

Read-outs that look alike come from different tables or passages of the source.

The target in this assay is human cannabinoid CB2 receptor (Homo sapiens, UniProt P34972). The experiment in a line: Cannabinoid CB2 receptor agonist activity (yeast reporter assay, FDGlu fluorescence). The assay is classed as cell-based. The following applies: for Emax: read-out: efficacy value (Emax relative to HU210) at the cloned human cannabinoid CB2 receptor. In a few lines:
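Agonist-driven growth was read as fluorescein fluorescence (ex 485, em 535 nm) from FDGlu cleavage after 24 h at 30 °C, using yeast strain MMY23 carrying human CB2 and chimeric Gpa1/Gαi3. Medium had 10 mM 3-aminotriazole, pH 7.0; four-parameter fits gave EC50, with Emax and EMR versus HU210.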
(A reporter such as luciferase makes a cellular process visible.)

[1] abbreviates: EC50 value at the cloned human cannabinoid CB2 receptor.

Chain of human cannabinoid CB2 receptor (P34972 whole entry): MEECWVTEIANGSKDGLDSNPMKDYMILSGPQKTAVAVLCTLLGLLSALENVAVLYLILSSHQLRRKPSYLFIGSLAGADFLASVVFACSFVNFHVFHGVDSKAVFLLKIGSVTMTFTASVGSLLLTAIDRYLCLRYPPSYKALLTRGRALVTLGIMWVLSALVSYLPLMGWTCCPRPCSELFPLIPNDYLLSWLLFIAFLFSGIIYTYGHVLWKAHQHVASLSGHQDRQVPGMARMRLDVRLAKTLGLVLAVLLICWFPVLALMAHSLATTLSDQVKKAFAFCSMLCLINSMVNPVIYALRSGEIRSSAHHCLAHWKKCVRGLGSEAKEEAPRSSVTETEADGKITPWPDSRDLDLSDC

Regarding `O=C(NCC1CC1)c1cnc(Nc2ccc(Cl)cc2Cl)nc1C(F)(F)F` [Example 241, 2-(2,4-Dichlorophenylamino)-4-trifluoromethylpyrimidine-5-carboxylic acid cyclopropylmethyl-amide], the Emax (usually the size of the effect at its maximum, as opposed to the concentration needed) was > 50%. Also, the EC50 (as a rule, the concentration needed to bring the measured effect to its halfway point) under setting [1] lay within 20 to 300 nM.
As for `O=C(NCC1CCCCC1)c1cnc(Nc2cccc(F)c2F)nc1C(F)(F)F` [Example 242, 2-(2,3-Difluorophenylamino)-4-trifluoromethyl-pyrimidine-5-carboxylic acid cyclohexylmethyl-amide], the Emax is > 50%. For the same compound, the concentration giving a half-maximal response (EC50) under setting [1] is 20 to 300 nM.
Turning to `O=C(NCC1CCCCC1)c1cnc(Nc2cccc(C(F)(F)F)c2F)nc1C(F)(F)F` [Example 243, 2-(2-Fluoro-3-trifluoromethyl-phenylamino)-4-trifluoromethyl-pyrimidine-5-carboxylic acid cyclohexylmethyl-amide], the maximal response (Emax) is > 50%. Further, the EC50 under setting [1] lay in the range of 20 to 300 nM.
Regarding `Cc1ccc(Nc2ncc(C(=O)NCC3CCCCC3)c(C(F)(F)F)n2)c(Cl)c1` [Example 244, 2-(2-Chloro-4-methylphenylamino)-4-trifluoromethyl-pyrimidine-5-carboxylic acid cyclohexylmethyl-amide], the Emax is > 50%. The EC50 under setting [1] fell in the range of 20 to 300 nM.
On to `COc1cc(Nc2ncc(C(=O)NCC3CCCCC3)c(C(F)(F)F)n2)ccc1Cl` [Example 245, 2-(4-Chloro-3-methoxyphenylamino)-4-trifluoromethyl-pyrimidine-5-carboxylic acid cyclohexylmethyl-amide], for which the Emax was > 50%. Under setting [1], the EC50 lay within 20 to 300 nM.
On to `Cc1ccc(Cl)cc1Nc1ncc(C(=O)NCC2CCCCC2)c(C(F)(F)F)n1` [Example 246, 2-(5-Chloro-2-methylphenylamino)-4-trifluoromethyl-pyrimidine-5-carboxylic acid cyclohexylmethyl-amide], for which the Emax was > 50%. The compound also returned an EC50 under setting [1] of 20 to 300 nM.
For `O=C(NCC1CCCC1)c1cnc(Nc2cccc(Cl)c2F)nc1C(F)(F)F` [Example 248, 2-(3-Chloro-2-fluoro-phenylamino)-4-trifluoromethyl-pyrimidine-5-carboxylic acid cyclopentylmethyl-amide], the Emax was > 50%. Further, the half-maximal effective concentration (EC50) under setting [1] lay within 20 to 300 nM.
On the same counts, the results for `O=C(NCC1CCCC1)c1cnc(Nc2cc(F)ccc2Cl)nc1C(F)(F)F` [Example 249, 2-(2-Chloro-5-fluoro-phenylamino)-4-trifluoromethyl-pyrimidine-5-carboxylic acid cyclopentylmethyl-amide] are > 50% and 20 to 300 nM.
On the same counts, the results for `O=C(NCC1CCOCC1)c1cnc(Nc2ccc(Cl)c(Cl)c2)nc1C(F)(F)F` [Example 250, 2-(3,4-Dichlorophenylamino)-4-trifluoromethylpyrimidine-5-carboxylic acid (tetrahydro-pyran-4-ylmethyl)-amide] are > 50% and 20 to 300 nM.
On the same counts, the results for `O=C(NCC1CCCC1)c1cnc(Nc2ccccc2)nc1C(F)(F)F` [Example 251, 2-(Phenylamino)-4-trifluoromethyl-pyrimidine-5-carboxylic acid cyclopentylmethyl-amide] are > 50% and 20 to 300 nM.
Take `O=C(NCC1CCC1)c1cnc(Nc2cccc(C(F)(F)F)c2F)nc1C(F)(F)F` [Example 252, 2-(2-Fluoro-3-trifluoromethyl-phenylamino)-4-trifluoromethyl-pyrimidine-5-carboxylic acid cyclobutylmethyl-amide]: the Emax is > 50%. Besides, under setting [1], the EC50 was 20 to 300 nM.
As for `Cc1cc(Cl)ccc1Nc1ncc(C(=O)NCC2CCC2)c(C(F)(F)F)n1` [Example 253, 2-(2-Methyl-4-chloro-phenylamino)-4-trifluoromethyl-pyrimidine-5-carboxylic acid cyclobutylmethyl-amide], the Emax is > 50%. Under setting [1], the half-maximal effective concentration (EC50) was in the range of 20 to 300 nM.
Take `O=C(NCC1CCOCC1)c1cnc(Nc2ccc(Br)cc2C(F)(F)F)nc1C(F)(F)F` [Example 254, 2-(2-Trifluoromethyl-4-bromo-phenylamino)-4-trifluoromethyl-pyrimidine-5-carboxylic acid (tetrahydro-pyran-4-ylmethyl)-amide]: the Emax was > 50%. The 50% effective concentration (EC50) under setting [1] lay within 20 to 300 nM.
On to `O=C(NCC1CCSCC1)c1cnc(Nc2cccc(Cl)c2)nc1C(F)(F)F` [Example 255, 2-(3-Chlorophenylamino)-4-trifluoromethyl-pyrimidine-5-carboxylic acid (tetrahydrothiopyran-4-ylmethyl) amide], for which the Emax was > 50%. For the same compound, the 50% effective concentration (EC50) under setting [1] fell in the range of 20 to 300 nM.
Consider `O=C(NCC1CCSCC1)c1cnc(Nc2ccc(Cl)cc2Cl)nc1C(F)(F)F` [Example 256, 2-(2,4-Dichlorophenylamino)-4-trifluoromethyl-pyrimidin-5-carboxylic acid (tetrahydrothiopyran-4-ylmethyl) amide], for which the maximal effect (Emax) is > 50%. Under setting [1], this compound registered an EC50 of 20 to 300 nM.
Regarding `O=C(NCC1CCC1)c1cnc(Nc2ccccc2Cl)nc1C(F)(F)F` [Example 257, 2-(2-Chlorophenylamino)-4-trifluoromethyl-pyrimidine-5-carboxylic acid cyclobutylmethyl-amide], the Emax was > 50%. Under setting [1], this compound yielded an EC50 of 300 to 1000 nM.
For the compound `O=C(NCC1CCC1)c1cnc(Nc2cc(F)cc(C(F)(F)F)c2)nc1C(F)(F)F` [Example 258, 2-(3-Fluoro-5-trifluoromethylphenylamino)-4-trifluoromethyl-pyrimidine-5-carboxylic acid cyclobutylmethyl-amide], the Emax was > 50%. This compound also gave an EC50 under setting [1] of 300 to 1000 nM.
On the same counts, the results for `Cc1ccc(Cl)cc1Nc1ncc(C(=O)NCC2CCC2)c(C(F)(F)F)n1` [Example 259, 2-(5-Chloro-2-methylphenylamino)-4-trifluoromethyl-pyrimidine-5-carboxylic acid cyclobutylmethyl-amide] are > 50% and 300 to 1000 nM.
With `O=C(NCc1ccccc1)c1cnc(Nc2cccc(Cl)c2)nc1C(F)(F)F` [Example 266, 2-(3-Chlorophenylamino)-4-trifluoromethylpyrimidine-5-carboxylic acid benzyl-amide], the Emax was > 50%. Moreover, under setting [1], the EC50 was in the range of 20 to 300 nM.
Under setting [1], `O=C(NCc1ccncc1)c1cnc(Nc2cccc(Cl)c2)nc1C(F)(F)F` [Example 267, 2-(3-Chlorophenylamino)-4-trifluoromethylpyrimidine-5-carboxylic acid (pyridin-4-ylmethyl)amide] yielded an EC50 of 20 to 300 nM.
Turning to `CN(Cc1ccccc1)C(=O)c1cnc(Nc2cccc(Cl)c2)nc1C(F)(F)F` [Example 268, 2-(3-Chlorophenylamino)-4-trifluoromethylpyrimidine-5-carboxylic acid N-benzyl-N-methylamide], the EC50 under setting [1] was 20 to 300 nM.
Turning to `COc1ccc(CNC(=O)c2cnc(Nc3cccc(Cl)c3)nc2C(F)(F)F)cc1` [Example 269, 2-(3-Chlorophenylamino)-4-trifluoromethylpyrimidine-5-carboxylic acid 4-methoxybenzyl-amide], the Emax was > 50%. For the same compound, under setting [1], the EC50 lay within 20 to 300 nM.
Take `O=C(NCc1ccc(F)cc1)c1cnc(Nc2cccc(Cl)c2)nc1C(F)(F)F` [Example 270, 2-(3-Chlorophenylamino)-4-trifluoromethylpyrimidine-5-carboxylic acid 4-fluorobenzyl-amide]: for the setting “read-out: EC50 value at the cloned human cannabinoid CB2 receptor”, the EC50 was 20 to 300 nM.
`N#Cc1ccc(CNC(=O)c2cnc(Nc3cccc(Cl)c3)nc2C(F)(F)F)cc1` [Example 271, 2-(3-Chlorophenylamino)-4-trifluoromethylpyrimidine-5-carboxylic acid 4-cyanobenzyl-amide]: the Emax was > 50%. This compound had an EC50 under setting [1] of 20 to 300 nM.
Take `CN(Cc1ccccc1)C(=O)c1cnc(Nc2cccc(Cl)c2Cl)nc1C(F)(F)F` [Example 272, 2-(2,3-Dichlorophenylamino)-4-trifluoromethylpyrimidine-5-carboxylic acid N-benzyl-N-methylamide]: the half-maximal effective concentration (EC50) under setting [1] lay in the range of 20 to 300 nM.
Under setting [1], `O=C(NCc1ccccc1)c1cnc(Nc2ccc(Cl)cc2Cl)nc1C(F)(F)F` [Example 273, 2-(2,4-Dichlorophenylamino)-4-trifluoromethylpyrimidine-5-carboxylic acid benzyl-amide] returned a 50% effective concentration (EC50) of 20 to 300 nM.
In the case of `O=C(NCc1ccccc1)c1cnc(Nc2ccc(Cl)c(Cl)c2)nc1C(F)(F)F` [Example 274, 2-(3,4-Dichlorophenylamino)-4-trifluoromethylpyrimidine-5-carboxylic acid benzyl-amide], under setting [1], the EC50 lay within 20 to 300 nM.
Same read-out and setting: under `CN(Cc1ccccc1)C(=O)c1cnc(Nc2c(Cl)cccc2Cl)nc1C(F)(F)F` [Example 275, 2-(2,6-Dichlorophenylamino)-4-trifluoromethylpyrimidine-5-carboxylic acid N-benzyl-N-methylamide] stands 20 to 300 nM; under `O=C(NCc1ccccc1)c1cnc(Nc2cc(Cl)cc(Cl)c2)nc1C(F)(F)F` [Example 276, 2-(3,5-Dichlorophenylamino)-4-trifluoromethylpyrimidine-5-carboxylic acid benzyl-amide], 20 to 300 nM.
With `O=C(NCc1ccccc1)c1cnc(Nc2cccc(F)c2)nc1C(F)(F)F` [Example 277, 2-(3-Fluorophenylamino)-4-trifluoromethylpyrimidine-5-carboxylic acid benzyl-amide], the Emax is > 50%. Besides, the EC50 under setting [1] lay within 20 to 300 nM.
Regarding `O=C(NCc1ccccc1)c1cnc(Nc2cccc(Br)c2)nc1C(F)(F)F` [Example 278, 2-(3-Bromophenylamino)-4-trifluoromethylpyrimidine-5-carboxylic acid benzyl-amide], the Emax was > 50%. This compound also showed an EC50 under setting [1] of 20 to 300 nM.
`CN(Cc1ccccc1)C(=O)c1cnc(Nc2cccc(Br)c2)nc1C(F)(F)F` [Example 279, 2-(3-Bromophenylamino)-4-trifluoromethylpyrimidine-5-carboxylic acid N-benzyl-N-methylamide] gave an EC50 under setting [1] of 20 to 300 nM.
